Inhibition data for 19 molecules are collected here from patent publication US10081624B2, “Heterocyclic compound” (Takeda Pharmaceutical Company Limited, priority 2014, dated 2018).

One assay concerns the target T1, HDAC1 enzyme (Homo sapiens, UniProt Q13547).
T1 construct: prepared by transducing full length HDAC1 and HDAC6 genes into Sf-9 insect cells; GST; purchased SignalChem; host or cells: Sf-9 insect cells
Put plainly: HDAC1 enzyme inhibitory assay (HDAC-Glo I/II Assay kit). It counts as biochemical. Conditions: 1 μM test compound; read-out: HDAC1 inhibitory rate (%) (1 μM). An outline of the steps:
(§1)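 Sf-9-expressed GST-purified full-length HDAC1/HDAC6; cpd + enzyme 60 min RT, 24 mM Tris-HCl pH 7.5, 135 mM NaCl, 0.6 mM glutathione, 0.01% Tween-20; substrate-developer 20 min RT; luminescence; no-enzyme wells = 100% inhibition.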

Another assay deals with T2, HDAC6 enzyme (Homo sapiens, UniProt Q9UBN7).
T2 construct: prepared by transducing full length HDAC1 and HDAC6 genes into Sf-9 insect cells; GST; purchased SignalChem; host or cells: Sf-9 insect cells
T2 sequence (Q9UBN7 1-1215): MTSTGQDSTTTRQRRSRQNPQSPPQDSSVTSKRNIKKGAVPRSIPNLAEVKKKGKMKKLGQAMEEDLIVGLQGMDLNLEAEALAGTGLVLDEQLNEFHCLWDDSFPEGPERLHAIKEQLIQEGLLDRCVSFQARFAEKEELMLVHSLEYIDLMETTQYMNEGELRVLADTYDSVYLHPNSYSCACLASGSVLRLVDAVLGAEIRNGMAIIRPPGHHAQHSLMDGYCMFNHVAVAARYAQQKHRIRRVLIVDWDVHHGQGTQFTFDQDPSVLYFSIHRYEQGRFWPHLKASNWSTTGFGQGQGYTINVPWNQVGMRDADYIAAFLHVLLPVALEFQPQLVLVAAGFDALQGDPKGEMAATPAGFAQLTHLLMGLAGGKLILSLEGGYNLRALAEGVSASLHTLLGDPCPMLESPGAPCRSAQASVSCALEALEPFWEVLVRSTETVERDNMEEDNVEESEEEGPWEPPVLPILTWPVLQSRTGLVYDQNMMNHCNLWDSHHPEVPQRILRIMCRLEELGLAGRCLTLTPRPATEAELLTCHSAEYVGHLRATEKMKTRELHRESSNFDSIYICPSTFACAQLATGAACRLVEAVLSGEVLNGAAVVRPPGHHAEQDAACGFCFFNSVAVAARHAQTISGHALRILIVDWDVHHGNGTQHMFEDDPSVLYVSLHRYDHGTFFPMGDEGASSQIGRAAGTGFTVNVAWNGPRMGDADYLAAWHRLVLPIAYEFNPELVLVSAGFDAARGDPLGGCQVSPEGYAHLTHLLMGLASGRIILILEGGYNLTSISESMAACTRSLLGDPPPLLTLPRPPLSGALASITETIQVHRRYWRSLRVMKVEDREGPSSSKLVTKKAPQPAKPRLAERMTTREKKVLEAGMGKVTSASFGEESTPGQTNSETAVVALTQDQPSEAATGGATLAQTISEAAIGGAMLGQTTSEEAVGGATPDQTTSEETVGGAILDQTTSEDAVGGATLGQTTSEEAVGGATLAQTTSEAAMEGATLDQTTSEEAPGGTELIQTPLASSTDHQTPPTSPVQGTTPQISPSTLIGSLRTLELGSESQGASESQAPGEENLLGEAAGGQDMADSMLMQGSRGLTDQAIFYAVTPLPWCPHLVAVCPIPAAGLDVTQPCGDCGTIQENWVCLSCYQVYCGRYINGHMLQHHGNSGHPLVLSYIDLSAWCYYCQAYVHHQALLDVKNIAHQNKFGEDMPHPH
Put plainly: HDAC6 enzyme inhibitory assay (HDAC-Glo I/II Assay kit). It counts as biochemical. The following applies: 1 μM test compound; read-out: HDAC6 inhibitory rate (%) (1 μM). An outline of the steps: as §1

T1 sequence (Q13547 whole entry): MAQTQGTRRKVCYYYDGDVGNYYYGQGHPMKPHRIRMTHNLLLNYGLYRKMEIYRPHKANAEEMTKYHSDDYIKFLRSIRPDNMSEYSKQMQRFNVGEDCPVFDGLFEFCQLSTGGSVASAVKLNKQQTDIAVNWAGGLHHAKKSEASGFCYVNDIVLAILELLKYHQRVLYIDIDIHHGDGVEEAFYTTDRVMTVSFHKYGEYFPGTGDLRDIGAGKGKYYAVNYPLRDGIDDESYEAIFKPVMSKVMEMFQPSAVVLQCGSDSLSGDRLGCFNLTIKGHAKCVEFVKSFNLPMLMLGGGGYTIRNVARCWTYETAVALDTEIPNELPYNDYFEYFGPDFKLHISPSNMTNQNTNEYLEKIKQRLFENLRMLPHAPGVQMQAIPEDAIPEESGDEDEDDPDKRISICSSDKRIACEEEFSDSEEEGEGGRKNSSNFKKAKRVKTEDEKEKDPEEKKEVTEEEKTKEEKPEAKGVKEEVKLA

Consider `O=C(NCC1CCc2ccccc2N1C(=O)C1CC1)c1ccc(-c2noc(C(F)(F)F)n2)cc1` (centres unmarked) [Example 172, N-((1-(cyclopropylcarbonyl)-1,2,3,4-tetrahydroquinolin-2-yl)methyl)-4-(5-(trifluoromethyl)-1,2,4-oxadiazol-3-yl)benzamide], for which the inhibition at 1 µM was determined as 8% at HDAC1 enzyme and 95% at HDAC6 enzyme.

Consider `O=C(NCC1CCc2ccccc2N1C(=O)c1ccccc1)c1ccc(-c2noc(C(F)(F)F)n2)cc1` (centres unmarked) [Example 173, N-((1-benzoyl-1,2,3,4-tetrahydroquinolin-2-yl)methyl)-4-(5-(trifluoromethyl)-1,2,4-oxadiazol-3-yl)benzamide], for which the inhibition at 1 µM at HDAC1 enzyme was 16%; on HDAC6 enzyme, 90%.

`O=C(NCC1Cc2ccccc2CN1C(=O)c1ccccc1)c1ccc(-c2noc(C(F)(F)F)n2)cc1` (centres unmarked) [Example 175, N-((2-benzoyl-1,2,3,4-tetrahydroisoquinolin-3-yl)methyl)-4-(5-(trifluoromethyl)-1,2,4-oxadiazol-3-yl)benzamide]: the inhibition at 1 µM at HDAC1 enzyme is 18%; at HDAC6 enzyme it was 97%.

On to `O=C(NCC1COCCN1C(=O)c1ccccc1)c1ccc(-c2noc(C(F)(F)F)n2)cc1F` (centres unmarked) [Example 177, N-((4-benzoylmorpholin-3-yl)methyl)-2-fluoro-4-(5-(trifluoromethyl)-1,2,4-oxadiazol-3-yl)benzamide], for which the results for the inhibition at 1 µM on HDAC1 enzyme and on HDAC6 enzyme were 27% and 99%, respectively.

For `Cc1cc(-c2noc(C(F)(F)F)n2)ccc1C(=O)NCC1COCCN1C(=O)c1ccccc1` (centres unmarked) [Example 178, N-((4-benzoylmorpholin-3-yl)methyl)-2-methyl-4-(5-(trifluoromethyl)-1,2,4-oxadiazol-3-yl)benzamide], the figures for the inhibition at 1 µM on HDAC1 enzyme and on HDAC6 enzyme were 3% and 24%, respectively.

As to `Cc1cc(C(=O)NCC2COCCN2C(=O)c2ccccc2)ccc1-c1noc(C(F)(F)F)n1` (centres unmarked) [Example 179, N-((4-benzoylmorpholin-3-yl)methyl)-3-methyl-4-(5-(trifluoromethyl)-1,2,4-oxadiazol-3-yl)benzamide], the inhibition at 1 µM at HDAC1 enzyme is -1%; on HDAC6 enzyme it was 36%.

Turning to `O=C(NCC1COCCN1C(=O)c1ccccc1)c1ccc(-c2noc(C(F)(F)F)n2)cn1` (centres unmarked) [Example 181, N-((4-benzoylmorpholin-3-yl)methyl)-5-(5-(trifluoromethyl)-1,2,4-oxadiazol-3-yl)pyridine-2-carboxamide], the inhibition at 1 µM came out at 29% at HDAC1 enzyme and 97% on HDAC6 enzyme.

With `O=C(NCC1COCCN1C(=O)c1cc(Cl)cc(Cl)c1)c1ccc(-c2noc(C(F)(F)F)n2)cn1` (centres unmarked) [Example 182, N-((4-(3,5-dichlorobenzoyl)morpholin-3-yl)methyl)-5-(5-(trifluoromethyl)-1,2,4-oxadiazol-3-yl)pyridine-2-carboxamide], the figures for the inhibition at 1 µM at HDAC1 enzyme and on HDAC6 enzyme were 42% and 97%, respectively.

For the molecule `O=C(NC[C@H]1COCCN1C(=O)c1cc(Cl)cc(Cl)c1)c1ccc(-c2noc(C(F)(F)F)n2)cn1` [Example 183, N-(((3S)-4-(3,5-dichlorobenzoyl)morpholin-3-yl)methyl)-5-(5-(trifluoromethyl)-1,2,4-oxadiazol-3-yl)pyridine-2-carboxamide], the inhibition at 1 µM on HDAC1 enzyme worked out at 57%; at HDAC6 enzyme, 97%.

Regarding `Cn1nc2ccccc2c1C(=O)N1CCOC[C@@H]1CNC(=O)c1ccc(-c2noc(C(F)(F)F)n2)cn1` [Example 184, N-(((3S)-4-((2-methyl-2H-indazol-3-yl)carbonyl)morpholin-3-yl)methyl)-5-(5-(trifluoromethyl)-1,2,4-oxadiazol-3-yl)pyridine-2-carboxamide], the inhibition at 1 µM stood at 77% at HDAC1 enzyme and 99% on HDAC6 enzyme.

On to `Cc1oncc1C(=O)N1CCOC[C@@H]1CNC(=O)c1ccc(-c2noc(C(F)(F)F)n2)cn1` [Example 193, N-(((3S)-4-((5-methyl-1,2-oxazol-4-yl)carbonyl)morpholin-3-yl)methyl)-5-(5-(trifluoromethyl)-1,2,4-oxadiazol-3-yl)pyridine-2-carboxamide], for which the inhibition at 1 µM at HDAC1 enzyme was 33%; on HDAC6 enzyme, 97%.

Take `Cc1nonc1C(=O)N1CCOC[C@@H]1CNC(=O)c1ccc(-c2noc(C(F)(F)F)n2)cn1` [Example 194, N-(((3S)-4-((4-methyl-1,2,5-oxadiazol-3-yl)carbonyl)morpholin-3-yl)methyl)-5-(5-(trifluoromethyl)-1,2,4-oxadiazol-3-yl)pyridine-2-carboxamide]: the inhibition at 1 µM at HDAC1 enzyme stood at 36%; on HDAC6 enzyme it was 97%.

Consider `Cc1nnsc1C(=O)N1CCOC[C@@H]1CNC(=O)c1ccc(-c2noc(C(F)(F)F)n2)cn1` [Example 195, N-(((3S)-4-((4-methyl-1,2,3-thiadiazol-5-yl)carbonyl)morpholin-3-yl)methyl)-5-(5-(trifluoromethyl)-1,2,4-oxadiazol-3-yl)pyridine-2-carboxamide], for which the inhibition at 1 µM stood at 40% at HDAC1 enzyme and 98% at HDAC6 enzyme.

In the case of `O=C(NC[C@H]1COCCN1C(=O)C1(c2ccccc2)CC1)c1ccc(-c2noc(C(F)(F)F)n2)cn1` [Example 202, N-(((3S)-4-((1-phenylcyclopropyl)carbonyl)morpholin-3-yl)methyl)-5-(5-(trifluoromethyl)-1,2,4-oxadiazol-3-yl)pyridine-2-carboxamide], the results for the inhibition at 1 µM on HDAC1 enzyme and on HDAC6 enzyme were 20% and 98%, respectively.

Regarding `O=C(NC[C@H]1COCCN1C(=O)C1CCCCC1)c1ccc(-c2noc(C(F)(F)F)n2)cn1` [Example 204, N-(((3S)-4-(cyclohexylcarbonyl)morpholin-3-yl)methyl)-5-(5-(trifluoromethyl)-1,2,4-oxadiazol-3-yl)pyridine-2-carboxamide], the results for the inhibition at 1 µM at HDAC1 enzyme and at HDAC6 enzyme were 22% and 97%, respectively.

Consider `O=C(NC[C@H]1COCCN1C(=O)C1C2CC3CC(C2)CC1C3)c1ccc(-c2noc(C(F)(F)F)n2)cn1` (some centres unmarked) [Example 205, N-((4-(adamantan-2-ylcarbonyl)morpholin-3-yl)methy)-5-(5-(trifluoromethyl)-1,2,4-oxadiazol-3-yl)pyridine-2-carboxamide], for which the inhibition at 1 µM on HDAC1 enzyme turned out to be 59%; on HDAC6 enzyme, 99%.

For `CC(C)(C(=O)N1CCOC[C@@H]1CNC(=O)c1ccc(-c2noc(C(F)(F)F)n2)cn1)c1ccccc1` [Example 206, N-(((3S)-4-(2-methyl-2-phenylpropanoyl)morpholin-3-yl)methyl)-5-(5-(trifluoromethyl)-1,2,4-oxadiazol-3-yl)pyridine-2-carboxamide], the inhibition at 1 µM at HDAC1 enzyme came to 33%; on HDAC6 enzyme, 98%.

In the case of `O=C(NC[C@H]1COCCN1C(=O)C(F)(F)c1ccccc1)c1ccc(-c2noc(C(F)(F)F)n2)cn1` [Example 207, N-(((3S)-4-(difluoro(phenyl)acetyl)morpholin-3-yl)methyl)-5-(5-(trifluoromethyl)-1,2,4-oxadiazol-3-yl)pyridine-2-carboxamide], the results for the inhibition at 1 µM on HDAC1 enzyme and at HDAC6 enzyme were 41% and 99%, respectively.

Take `O=C(NC[C@@H]1COCCN1C(=O)C1(c2ccccc2)CC1)c1ccc(-c2noc(C(F)(F)F)n2)cn1` [Example 208, N-(((3R)-4-((1-phenylcyclopropyl)carbonyl)morpholin-3-yl)methyl)-5-(5-(trifluoromethyl)-1,2,4-oxadiazol-3-yl)pyridine-2-carboxamide]: the inhibition at 1 µM on HDAC1 enzyme is 16%; on HDAC6 enzyme, 92%.
